Measured values: patent publication EP4796548A1, “PROTEOLYSIS-TARGETING CHIMERA COMPOUND FOR DEGRADING IRAK4 AND USE THEREOF” (Dovetree Medicines Unus, Inc., priority 2023, dated 2025)

Experiments:
IRAK4 [1] = biological target: T1, IRAK4 (Homo sapiens, UniProt Q9NWZ3); test: detection of proteolysis by Hibit fluorescence (IRAK4 degradation); assay type: cell-based; design: host or cells: HEK293T cells (ATCC); settings: for Dmax: HEK-293T; for DC50: Hibit, HEK293T cells transfected with HiBiT-tagged IRAK4 plasmid, 24 hours incubation
T1 sequence (Q9NWZ3 1-460): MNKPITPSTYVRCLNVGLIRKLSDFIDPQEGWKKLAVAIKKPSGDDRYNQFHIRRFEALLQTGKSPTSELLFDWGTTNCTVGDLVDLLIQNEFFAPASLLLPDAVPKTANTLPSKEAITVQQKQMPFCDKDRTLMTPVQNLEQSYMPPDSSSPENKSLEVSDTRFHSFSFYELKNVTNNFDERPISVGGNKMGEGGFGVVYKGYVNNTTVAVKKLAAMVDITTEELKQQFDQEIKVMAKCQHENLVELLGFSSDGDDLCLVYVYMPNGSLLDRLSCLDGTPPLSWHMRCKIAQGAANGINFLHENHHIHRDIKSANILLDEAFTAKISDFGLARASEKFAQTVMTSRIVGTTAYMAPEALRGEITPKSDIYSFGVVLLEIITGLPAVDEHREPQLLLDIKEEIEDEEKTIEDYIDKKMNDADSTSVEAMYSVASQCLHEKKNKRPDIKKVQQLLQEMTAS
Protocol: Using the HiBiT tag technology, the sequence containing the HiBiT tag (Seq. ID. No. 1, 5'-[…]-3', Beijing Tsingke Biotech Co., Ltd.) was ligated to the IRAK4 plasmid (Seq. ID. No. 2, 5'-Eco[…] NOT1-3', Beijing Tsingke Biotech Co., Ltd.). The plasmid was transfected into HEK293T cells (ATCC), and the HiBiT […] was measured to characterize the compound-induced IRAK4 degradation. 300,000 HEK293T cells in 1 mL of DMEM medium (Gbico, 11965-092) were seeded into a 6-well plate (Corning 3516) , followed by being placed overnight in a constant incubator at 37°C, 5% CO2. 3 µL X-tremeGENE™ 9 DNA Transfection Reagent (Roche #06365787001), and 1 µg IRAK4 plasmid were added to 200 µL Opti-MEM (Gibico 31985062), followed by gentle mixing. The 6-well plate that had been incubated overnight was taken out and allowed to stand at room temperature for 15 minutes, followed by dropwise addition to the 6-well plate. After transient transfection for 6 hours, cells were digested with trypsin (Gibco, 25200-056) for one minute, followed by centrifugation at 1000 rpm for 3 minutes. 5000 HEK293T cells in 40 µL DMEM medium were seeded into a 384-well plate (Corning 3765), followed by being placed overnight in a constant incubator at 37°C, 5% CO2. Then, 40 nL of the compound was added to the 384-well plate using an Echo 655 Liquid Handler, with a highest final concentration of 10 µM, and a 1:3 serial dilution to give a total of 10 concentrations, followed by incubation at 37°C, 5% CO2 for 24 hours. The 384-well plate was removed and equilibrated to room temperature. 40 µL Nano-Glo® HiBiT Lytic Detection System (Promega N3030) was added to each well. After incubation at room temperature for 15 minutes, the fluorescence values were recorded using EnVision Xcite Multilabel Reader (PerkinElmer 2105-0020). Data were fitted and analyzed using Prism 9.3 software with non-linear regression (non-liner inhibitor(Bell-shaped)) and a 4 parameter, with parameters as follows: • Span1=Plateau1[…] • Span2=Plateau2-Dip Section1 = Span1/(1+10^(∧)((LogEC50_1−X)*nH1)) [formula] Section2 = Span2/(1+10^(∧)((X−LogEC50_2)*nH2)) [formula]
(§1) The equation is as follows: Y=Dip+Section1+Section2.

IRAK4 [2] = biological target: T1, IRAK4; test: cell-based; assay type: cell-based; design: endogenous in cells; host or cells: THP-1 cells; settings: for Dmax: THP-1; for DC50: WB, THP-1 cells, 24 hours incubation
Protocol: The degradation level of IRAK4 in THP-1 cells was detected by Western Blot technique. 1,000,000 THP-1 cells were seeded in a 12-well plate (Corning 3513) with 1 mL per well. A stock solution of the compound in 1000× gradient dilution was prepared, with a maximum concentration of 300 µM, and serially diluted with DMSO in 1:3, for a total of 9 doses. The compound in 1000× gradient dilution was added to the 12-well plate with 1 µL per well. After incubation under a condition of 37°C, 5% CO2 for 24 hours, the cells were collected into a 2 mL centrifuge tube, and centrifuged at 5,000 rpm for 5 minutes. The supernatant was discarded. 100 µL RIPA lysis solution (Beyotime, P0013C) was added. After mixing well, the cells were lysed on ice for 10 min, and centrifuged at 14,000 rpm at 4°C for 10 min. The supernatant was collected. Protein content was determined using BCA (Solarbio, PC0020-10*50T). 75 µL of the supernatant was taken, and 25 µL NuPAGE LDS Sample Buffer (4X) (Thermo B0007) (with 5% β-mercaptoethanol added before use) was added to each tube to prepare samples, followed by heating in a metal bath at 100°C for 5 min. 20 µL was loaded into a 4-12% Bis-Tris gel (Invitrogen, WG1402BOX) to prepare 1x NuPAGE™ MOPS buffer (Invitrogen, NP0001). The electrophoresis apparatus was set to a constant voltage of 120V for 1.5 hours. 1x NuPAGE™ MOPS SDS electrophoresis buffer (20X) (Invitrogen, NP0001) was prepared. The electrophoresis apparatus was set to a constant current of 300 mA for 100 minutes. The protein was transferred to a PVDF membrane (Millipore, IPVH00010). The PVDF membrane was blocked with a blocking solution (Licor, 927-60001) at room temperature for 1 h, IRAK4 antibody (Abcam ab32511) was diluted 1:1,000, GAPDH (Abcam ab8245) was diluted 1:3,000, and then the antibody was incubated overnight at 4°C. The next day, the membrane was washed three times with 1× TBST (Elabscience E-BC-R335), for 5 min each time. Secondary antibodies IR Dye 800 CW Goat anti-rabbit (Licor #926-32211) and IRDye® 680RD Goat anti-Mouse (Licor #926-68070) were diluted 1:10,000, followed by incubation in the dark at room temperature for 1 h. The membrane was washed three times with TBST, for 5 min each time. Using Odyssey imaging system Li-cor Odyssey Clx, signals were detected and data were analyzed. Data were analyzed using GraphPad (Prism 9.3) software with non-linear regression (non-liner inhibitor(Bell-shaped)) and a 4 parameter, with parameters as follows: • Span 1 =Plateau1-Dip • Span2=Plateau2-Dip Section1 = Span1/(1+10^(∧)((LogEC50_1−X)*nH1)) [formula] Section2 = Span2/(1+10^(∧)((X−LogEC50_2)*nH2)) [formula]
as §1

Row | SMILES | Dmax (IRAK4 [1]) | DC50 (IRAK4 [1]) | Dmax (IRAK4 [2]) | DC50 (IRAK4 [2]) | DC50 (IRAK4 [2]; read-out: DC50)
1 | Cn1c(=O)n(C2CCC(=O)NC2=O)c2cccc(N3CCC4(CCN(C[C@H]5CC[C@H](n6nc(C(F)F)c7cc(-c8ccc9cc(C(N)=O)cnn89)ncc76)CC5)CC4)CC3)c21 (some centres unmarked) [Compound 1] | > 80% | < 0.5 nM | > 70% | < 10 nM | –
2 | Cn1c(=O)n(C2CCC(=O)NC2=O)c2cccc(N3CCC(N4CCN(C[C@H]5CC[C@H](n6nc(C(F)F)c7cc(-c8ccc9cc(C(N)=O)cnn89)ncc76)CC5)CC4)CC3)c21 (some centres unmarked) [Compound 2] | > 80% | < 0.5 nM | > 70% | < 10 nM | –
3 | Cn1c(=O)n(C2CCC(=O)NC2=O)c2cccc(N3CCC4(CCN(C[C@H]5CC[C@H](n6nc(C(F)F)c7cc(-c8ccc9cc(C(N)=O)cnn89)ncc76)CC5)CC4)C3)c21 (some centres unmarked) [Compound 3] | 70 to 80% | < 0.5 nM | – | – | –
4 | Cn1c(=O)n(C2CCC(=O)NC2=O)c2cccc(N3CCN(C[C@H]4CC[C@H](n5nc(C(F)F)c6cc(-c7ccc8cc(C(N)=O)cnn78)ncc65)CC4)CC3)c21 (some centres unmarked) [Compound 4] | < 60% | 1 to 5 nM | – | – | –
5 | Cn1c(=O)n(C2CCC(=O)NC2=O)c2cccc(N3CCN(C4CCN(C[C@H]5CC[C@H](n6nc(C(F)F)c7cc(-c8ccc9cc(C(N)=O)cnn89)ncc76)CC5)CC4)CC3)c21 (some centres unmarked) [Compound 5] | > 80% | < 0.5 nM | 60 to 70% | < 10 nM | –
6 | Cn1c(=O)n(C2CCC(=O)NC2=O)c2cccc(N3CCC4(CCN(C[C@H]5CC[C@H](n6nc(C(F)F)c7cc(-c8ccc9cc(C(N)=O)cnn89)ncc76)CC5)C4)CC3)c21 (some centres unmarked) [Compound 6] | > 80% | < 0.5 nM | > 70% | < 10 nM | –
7 | Cn1c(=O)n(C2CCC(=O)NC2=O)c2cccc(N[C@H]3CC[C@H](N(C)C[C@H]4CC[C@H](n5nc(C(F)F)c6cc(-c7ccc8cc(C(N)=O)cnn78)ncc65)CC4)CC3)c21 (some centres unmarked) [Compound 7] | 60 to 70% | < 0.5 nM | – | – | –
8 | Cn1c(=O)n(C2CCC(=O)NC2=O)c2cccc(C#CCOC3CCN(C[C@H]4CC[C@H](n5nc(C(F)F)c6cc(-c7ccc8cc(C(N)=O)cnn78)ncc65)CC4)CC3)c21 (some centres unmarked) [Compound 8] | 70 to 80% | < 0.5 nM | – | – | –
9 | C[C@H]1CN(c2cccc3c2n(C)c(=O)n3C2CCC(=O)NC2=O)CCN1C[C@H]1CC[C@H](n2nc(C(F)F)c3cc(-c4ccc5cc(C(N)=O)cnn45)ncc32)CC1 (some centres unmarked) [Compound 9] | – | – | – | – | > 30 nM
10 | Cn1nc(C2CCC(=O)NC2=O)c2cccc(-c3cnn(C4CCN(C[C@H]5CC[C@H](n6nc(C(F)F)c7cc(-c8ccc9cc(C(N)=O)cnn89)ncc76)CC5)CC4)c3)c21 (some centres unmarked) [Compound 10] | – | – | > 70% | < 10 nM | –
11 | Cn1c(=O)n(C2CCC(=O)NC2=O)c2cccc(-c3cnn(C4CCN(C[C@H]5CC[C@H](n6nc(C(F)F)c7cc(-c8ccc9cc(C(N)=O)cnn89)ncc76)CC5)CC4)c3)c21 (some centres unmarked) [Compound 11] | – | – | < 60% | > 30 nM | –
12 | C[C@@H]1CN(C2CCN(c3cccc4c3n(C)c(=O)n4C3CCC(=O)NC3=O)CC2)CCN1C[C@H]1CC[C@H](n2nc(C(F)F)c3cc(-c4ccc5cc(C(N)=O)cnn45)ncc32)CC1 (some centres unmarked) [Compound 12] | – | – | 60 to 70% | > 30 nM | –
13 | C[C@H]1CN(C2CCN(c3cccc4c3n(C)c(=O)n4C3CCC(=O)NC3=O)CC2)CCN1C[C@H]1CC[C@H](n2nc(C(F)F)c3cc(-c4ccc5cc(C(N)=O)cnn45)ncc32)CC1 (some centres unmarked) [Compound 13] | – | – | > 70% | > 30 nM | –
14 | C[C@@H]1CC2(CCN(c3cccc4c3n(C)c(=O)n4C3CCC(=O)NC3=O)CC2)CN1C[C@H]1CC[C@H](n2nc(C(F)F)c3cc(-c4ccc5cc(C(N)=O)cnn45)ncc32)CC1 (some centres unmarked) [Compound 17] | – | – | > 70% | > 30 nM | –
15 | Cn1nc(C2CCC(=O)NC2=O)c2cccc(N3CCC(N4CCN(C[C@H]5CC[C@H](n6nc(C(F)F)c7cc(-c8ccc9cc(C(N)=O)cnn89)ncc76)CC5)CC4)CC3)c21 (some centres unmarked) [Compound 19] | – | – | > 70% | < 10 nM | –
16 | Cn1nc(C2CCC(=O)NC2=O)c2cccc(N3CCC4(CCN(C[C@H]5CC[C@H](n6nc(C(F)F)c7cc(-c8ccc9cc(C(N)=O)cnn89)ncc76)CC5)C4)CC3)c21 (some centres unmarked) [Compound 20] | – | – | < 60% | 10 to 30 nM | –
17 | C[C@H]1CN(C[C@H]2CC[C@H](n3nc(C(F)F)c4cc(-c5ccc6cc(C(N)=O)cnn56)ncc43)CC2)CCN1C1CCN(c2cccc3c2n(C)c(=O)n3C2CCC(=O)NC2=O)CC1 (some centres unmarked) [Compound 22] | – | – | < 60% | > 30 nM | –
